Source: US20230009608A1, “GRK2 INHIBITORS AND USES THEREOF” (Cygnal Therapeutics, Inc., priority 2020, published 2023)
Like-named read-outs stand apart in the source and are kept apart here.

Molecular target: T1, GRK2 (Homo sapiens, UniProt P25098)
T1 construct: purchased SignalChem A14-10G
T1 sequence (P25098 1-689): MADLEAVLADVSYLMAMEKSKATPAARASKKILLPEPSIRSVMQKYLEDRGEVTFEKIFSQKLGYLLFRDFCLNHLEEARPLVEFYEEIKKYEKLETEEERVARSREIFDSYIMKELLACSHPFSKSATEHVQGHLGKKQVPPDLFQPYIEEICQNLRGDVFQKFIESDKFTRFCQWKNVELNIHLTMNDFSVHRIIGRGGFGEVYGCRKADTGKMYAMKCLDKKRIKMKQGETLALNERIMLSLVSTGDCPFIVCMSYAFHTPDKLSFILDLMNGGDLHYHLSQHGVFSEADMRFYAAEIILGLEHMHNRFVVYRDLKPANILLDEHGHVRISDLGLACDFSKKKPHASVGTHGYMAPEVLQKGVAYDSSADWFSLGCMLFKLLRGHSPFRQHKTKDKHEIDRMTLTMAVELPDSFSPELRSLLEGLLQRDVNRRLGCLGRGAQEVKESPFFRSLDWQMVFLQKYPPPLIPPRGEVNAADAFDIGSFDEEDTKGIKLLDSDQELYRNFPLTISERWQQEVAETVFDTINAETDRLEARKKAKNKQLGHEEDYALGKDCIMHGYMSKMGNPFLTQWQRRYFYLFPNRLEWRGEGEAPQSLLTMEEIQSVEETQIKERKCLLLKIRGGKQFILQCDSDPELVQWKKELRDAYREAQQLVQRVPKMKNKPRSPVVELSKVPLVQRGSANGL
Assay: ADPGlo GRK2 Inhibition Assay (Example 8)
Format: biochemical
Protocol: HTS was performed using 1 μM compound.
Compounds were dissolved in 100% DMSO, serially diluted tree-fold from 100 μM concentration to 46 nM and transferred (50 nL) into assay ready plate.
Materials: GRK2 was purchased from SignalChem (Cat #A14-10G, Lot #X^645-3). Substrate GRKtide was from SignalChem (Cat #G46-58, Lot #R339-6). ADP-Glo Kinase Assay from Promega (Cat #V9102). Assay buffer consisted of 25 mMv HEPES (pH7.5), 10 mMv MgCl2, 0.01% Tween-20, 1 mM DDT. 384-well white plates were from Greiner […] (Item #784075).
HTS protocol: Take 384 well plate with 50 nL of compound in columns 3-22/DMSO solution 1-2,23-24. Add 2.5 μL assay buffer to columns 23 and 24 using Thermo Scientific Multidrop Combi Dispenser. Add 2.5 μL of 2× enzyme solution (15 nM in 1× assay buffer) using Thermo Scientific Multidrop Combi Reagent Dispenser to all columns except of 23 and 24. Incubate for 15 minutes. Fill plate with 2.5 μL of 2× substrate mix (20 μM ATP and 0.6 mg/nt GRKtide in Ix assay buffer) using Thermo Scientific Multidrop Combi Reagent Dispenser. Spin 15 seconds at 1000 rpm and incubate for 180 min at room temperature. Add 5 μL ADP-Glo reagent to all the wells. Spin 15 seconds at 1000 rpm and incubate for 40 min at room temperature. Add 10 μL Detection solution to all the wells. Incubate for 30 min at room temperature. Read plate in Luminescent modeon BMG PheraStar FSX (gain=3600).
Data Analysis: Data were analyzed in GraphPad Prism 8.0.2. Each HTS plate contains compounds in columns 3-22, controls (enzyme, no compound) in columns 1 and 2, and blanks (no enzyme) in columns 23 and 24. HTS percent inhibition was calculated for each compound from the signal in luminescence units and the mean of the plate controls and the mean of the plate blanks using the following equation: % Inhibition=100*(1−((signal-blank mean)/(control mean-blank mean))). At the final stage of data processing, we obtain dose-response curves, tables and SDF-files with the results of screening for each substance.

[1] = 7.5 nM GRK2, 10 μM ATP, ADP-Glo, read-out: GRK2 IC50 (nM) (Example 8)
[2] = ADPGlo GRK2 enzyme assay, read-out: A: Enzymatic GRK2: IC50 (nM) (Example 8)
[3] = Enzyme Assay A, ADPGlo (Example 8), read-out: A: Enzymatic GRK2: IC50 (nM) (Example 8)

| Structure (SMILES) | IC50 [2] [nM] | other results |
| --- | --- | --- |
| Cn1ccnc1[C@@H](NC(=O)c1cccc(NCc2nnc(-c3ccncc3)[nH]2)c1)C1CC1 [compound 34] | – | IC50 [1]: 10 nM |
| COc1cccc(CCNC(=O)c2cccc(NCc3nnc(-c4ccncn4)n3C)c2)c1 | 340 | – |
| COc1cccc([C@@H](C)NC(=O)c2cccc(NCc3nnc(-c4ccncn4)n3C)c2)c1 [compound 27] | – | IC50 [1]: 12 nM |
| CN(C)c1cccnc1CNC(=O)c1cccc(NCc2nnc(-c3ccncn3)n2C)c1 | 120 | – |
| Cn1c(CNc2cccc(C(=O)NCc3ccc(S(C)(=O)=O)cn3)c2)nnc1-c1ccncn1 | – | IC50 [3]: 240 nM |
| COc1ccc([C@@H](C)NC(=O)c2cccc(NCc3nnc(-c4ccncn4)n3C)c2)c(OC)c1 | 8.56 | – |
| CNc1cccnc1CNC(=O)c1cccc(NCc2nnc(-c3ccncn3)n2C)c1 | 133 | – |
| COc1ccc(F)cc1CNC(=O)c1cccc(NCc2nnc(-c3ccncn3)n2C)c1 | – | IC50 [3]: 15 nM |
| Cn1c(CNc2cccc(C(=O)NC(c3ccccc3)C(C)(C)CO)c2)nnc1-c1ccncn1 (stereo not shown) | – | IC50 [3]: 880 nM |
| COc1ccc([C@H](C)NC(=O)c2cccc(NCc3nnc(-c4ccncn4)n3C)c2)cc1 | 593 | – |
| Cc1ncc2c(n1)CCCC2NC(=O)c1cccc(NCc2nnc(-c3ccncn3)n2C)c1 (stereo not shown) | 108 | – |
| C#COc1ccc(C(=O)c2ccc(OCCCCC(=O)NCCOCCOCCOc3cccc(CNC(=O)c4cccc(NCc5nnc(-c6ccncn6)n5C)c4)c3)cc2)cc1 | > 1000 | – |
| Cn1c(CNc2cccc(C(=O)NCc3ccc(-n4nccn4)cc3)c2)nnc1-c1ccncn1 [compound 42] | – | IC50 [1]: 2.1 nM |
| Cc1ncc(CNC(=O)c2cccc(NCc3nnc(-c4ccncn4)n3C)c2)c(O)n1 | 382 | – |
| CCS(=O)(=O)c1ccc(CNC(=O)c2cccc(NCc3nnc(-c4ccncn4)n3C)c2)nc1 | – | IC50 [3]: 100 nM |
| Cn1c(CNc2cccc(C(=O)NCc3cnn(-c4ccccc4)n3)c2)nnc1-c1ccncn1 [compound 55] | – | IC50 [1]: 6.5 nM |
| Cn1c(CNc2cccc(C(=O)NCc3ncccc3S(C)(=O)=O)c2)nnc1-c1ccncn1 | 172 | – |
| Cc1nnc(O)c(C(C)NC(=O)c2cccc(NCc3nnc(-c4ccncn4)n3C)c2)c1C (stereo not shown) | 132 | – |
| CNS(=O)(=O)Cc1ccccc1CNC(=O)c1cccc(NCc2nnc(-c3ccncn3)n2C)c1 | 68.9 | – |
| Cn1c(CNc2cccc(C(=O)NC3CCn4nccc4C3)c2)nnc1-c1ccncn1 (stereo not shown) | 133 | – |
| CC(C)C(NC(=O)c1cccc(NCc2nnc(-c3ccncn3)n2C)c1)c1nccn1C (stereo not shown) | 152 | – |
| CC(NC(=O)c1cccc(NCc2nnc(-c3ccncn3)n2C)c1)c1c[nH]cn1 (stereo not shown) [compound 52] | – | IC50 [1]: 5.7 nM |
| Cc1ccc(C(CO)NC(=O)c2cccc(NCc3nnc(-c4ccncn4)n3C)c2)cc1 (stereo not shown) [compound 46] | – | IC50 [1]: 3.3 nM |

| Structure (SMILES) | IC50 [2] [nM] | other results |
| --- | --- | --- |
| Cn1c(CNc2cccc(C(=O)NCc3ccnc(OCC(F)(F)F)c3)c2)nnc1-c1ccncn1 [compound 19] | – | IC50 [1]: 17 nM |
| Cc1cccc([C@H](C)NC(=O)c2cccc(NCc3nnc(-c4ccncn4)n3C)c2)n1 | – | IC50 [3]: 95 nM |
| Cc1cc(CNC(=O)c2cccc(NCc3nnc(-c4ccncn4)n3C)c2)no1 | – | IC50 [3]: 110 nM |
| Cn1c(CNc2cccc(C(=O)NCc3cc4c(nc3O)CCCC4)c2)nnc1-c1ccncn1 | 192 | – |
| CCC[C@H](NC(=O)c1cccc(NCc2nnc(-c3ccncn3)n2C)c1)c1ccccn1 [compound 21] | – | IC50 [1]: 67 nM |
| C[C@@H](NC(=O)c1cccc(NCc2nnc(-c3ccncc3)n2CCO)c1)c1ncccc1Cl | 11.9 | – |
| CN1CCN(c2ccccc2CNC(=O)c2cccc(NCc3nnc(-c4ccncn4)n3C)c2)CC1 | 184 | – |
| Cn1c(CNc2cccc(C(=O)NC3(CO)CCCc4ccccc43)c2)nnc1-c1ccncn1 (stereo not shown) | 651 | – |
| Cn1c(CNc2cccc(C(=O)NC3CCCn4nccc43)c2)nnc1-c1ccncn1 (stereo not shown) | 171 | – |
| Cn1c(CNc2cccc(C(=O)NCc3ncccc3-n3cccn3)c2)nnc1-c1ccncn1 | 318 | – |
| O=C(NCc1ccccn1)c1cccc(NCc2nnc(-c3ccncc3)[nH]2)c1 | – | IC50 [3]: 36 nM |
| CC(NC(=O)c1cccc(NCc2nnc(-c3ccncn3)n2C)c1)c1ccccc1NS(C)(=O)=O (stereo not shown) | 68 | – |
| CCCCCOc1ccc2c(c1)[C@H](NC(=O)c1cccc(NCc3nnc(-c4ccncn4)n3C)c1)CO2 | 550 | – |
| CCS(=O)(=O)c1ccc(CNC(=O)c2cccc(NCc3nnc(-c4ccncn4)n3C)c2)cc1 [compound 53] | – | IC50 [1]: 6.2 nM |
| Cn1c(CNc2cccc(C(=O)NCc3ncc(Cl)cn3)c2)nnc1-c1ccncn1 | – | IC50 [3]: 240 nM |
| CC(Cc1ccccn1)NC(=O)c1cccc(NCc2nnc(-c3ccncn3)n2C)c1 (stereo not shown) | 290 | – |
| Cn1c(CNc2cccc(C(=O)NCc3c4c(n[nH]c3=O)CCCC4)c2)nnc1-c1ccncn1 | 531 | – |
| Cn1c(CNc2cccc(C(=O)NC3CNCCc4ccccc43)c2)nnc1-c1ccncn1 (stereo not shown) | 142 | – |
| Cc1cc(CNC(=O)c2cccc(NCc3nnc(-c4ccncn4)n3C)c2)c(C)n1-c1ccccc1 | – | IC50 [3]: 15 nM |
| Cn1c(CNc2cccc(C(=O)NC3(c4ncc[nH]4)CC3)c2)nnc1-c1ccncn1 | 748 | – |
| COc1ccccc1[C@@H](NC(=O)c1cccc(NCc2nnc(-c3ccncn3)n2C)c1)c1noc(C)n1 | 333 | – |
| Cn1c(CNc2cccc(C(=O)NCc3ccc(Br)cn3)c2)nnc1-c1ccncn1 | – | IC50 [3]: 140 nM |
| Cn1c(CNc2cccc(C(=O)NCc3ccccc3-n3cccn3)c2)nnc1-c1ccncn1 | 184 | – |

| Structure (SMILES) | IC50 [2] [nM] | other results |
| --- | --- | --- |
| CN1CC[C@H](NC(=O)c2cccc(NCc3nnc(-c4ccncn4)n3C)c2)c2ccccc21 | 85 | – |
| Cn1c(CNc2cccc(C(=O)NCc3ccncc3OCC3CCOC3)c2)nnc1-c1ccncn1 (stereo not shown) | 871 | – |
| CN1CCc2ccccc2C(NC(=O)c2cccc(NCc3nnc(-c4ccncn4)n3C)c2)C1=O (stereo not shown) | 253 | – |
| COc1cccc([C@@H](C)NC(=O)c2cccc(NCc3nnc(-c4ccncc4)[nH]3)c2)c1 | 81.6 | – |
| Cn1c(CNc2cccc(C(=O)NCc3cc4n(n3)CCC4)c2)nnc1-c1ccncn1 | > 1000 | – |
| COc1cccc2c1CCC2(CO)NC(=O)c1cccc(NCc2cnc(-c3ccncn3)n2C)c1 (stereo not shown) | 134 | – |
| Cn1c(CNc2cccc(C(=O)NC3CCCc4[nH]c(=O)ccc43)c2)nnc1-c1ccncn1 (stereo not shown) | 392 | – |
| CNS(=O)(=O)c1ccccc1CNC(=O)c1cccc(NCc2nnc(-c3ccncn3)n2C)c1 | 62.5 | – |
| Cn1c(CNc2cccc(C(=O)NC(C)(CO)c3ccccn3)c2)nnc1-c1ccncn1 (stereo not shown) | 511 | – |
| Cn1c(CNc2cccc(C(=O)NCc3cccnc3-n3cccn3)c2)nnc1-c1ccncn1 | 146 | – |
| Cc1nc(CNC(=O)c2cccc(NCc3nnc(-c4ccncn4)n3C)c2)cs1 [compound 61] | – | IC50 [1]: 9.8 nM |
| CN1CCC(NC(=O)c2cccc(NCc3nnc(-c4ccncn4)n3C)c2)c2ccccc21 (stereo not shown) [compound 16] | – | IC50 [1]: 37 nM |
| Cn1c(CNc2cccc(C(=O)NC3CCCc4c3ccc(=O)n4C)c2)nnc1-c1ccncn1 (stereo not shown) | > 1000 | – |
| Cc1cc2c(cc1CNC(=O)c1cccc(NCc3nnc(-c4ccncc4F)n3C)c1)OCCO2 | 8 | – |
| Cc1cccnc1CNC(=O)c1cccc(NCc2nnc(-c3ccncn3)n2C)c1 [compound 11] | – | IC50 [1]: 14 nM |
| Cn1c(CNc2cccc(C(=O)N[C@@H]3COCc4ccccc43)c2)nnc1-c1ccncn1 [compound 31] | – | IC50 [1]: 22 nM |
| Cc1ccccc1C(CN1CCOCC1)NC(=O)c1cccc(NCc2nnc(-c3ccncn3)n2C)c1 (stereo not shown) | 505 | – |
| COc1cccc2c1CC[C@H]2NC(=O)c1cccc(NCc2nnc(-c3ccncn3)n2C)c1 [compound 30] | – | IC50 [1]: 15 nM |
| Cn1c(CNc2cccc(C(=O)NCc3ccc(O)c(F)c3)c2)nnc1-c1ccncn1 | 118 | – |
| Cn1c(CNc2cccc(C(=O)NCc3ccc(O)nc3)c2)nnc1-c1ccncn1 | 203 | – |
| Cn1c(CNc2cccc(C(=O)NCc3ccc(F)cc3F)c2)nnc1-c1ccncn1 | – | IC50 [3]: 15 nM |
